According to patent US8383785B2, “Anti-bacterial activity of 9-hydroxy derivatives of 6,11-bicyclolides” (Enanta Pharmaceuticals, Inc., priority 2008, dated 2013):

How the values were obtained:
[1] = system: H. influenzae strain 33929; experiment: MIC by micro-dilution method, H. influenzae strain 33929; type: cell-based, Haemophilus influenzae; details: compounds of the invention (scaffold drawing 61, 9-hydroxy); 24 hours, 35+/-2° C.
Protocol: (§1) Susceptibility tests can be used to quantitatively measure the in vitro activity of an antimicrobial agent against a given bacterial isolate. Compounds are tested for in vitro antibacterial activity by a micro-dilution method. Minimal Inhibitory Concentration (MIC) is determined in 96 well microtiter plates utilizing the appropriate broth medium for the observed bacterial isolates. Antimicrobial agents are serially diluted (2-fold) in DMSO to produce a concentration range from about 64 μg/ml to about 0.03 μg/ml. The diluted compounds (2 μl/well) are then transferred into sterile, uninoculated medium (0.2 mL) by use of a 96 fixed tip-pipetting station. The inoculum for each bacterial strain is standardized to approximately 5×10^5 CFU/mL by optical comparison to a 0.5 McFarland turbidity standard. The plates are inoculated with 10 μl/well of adjusted bacterial inoculum. The 96 well plates are covered and incubated at 35+/−2° C. for 24 hours in ambient air environment. Following incubation, plate wells are visually examined by Optical Density measurement for the presence of growth (turbidity). The lowest concentration of an antimicrobial agent at which no visible growth occurs is defined as the MIC.
(§2) All in vitro testing follows the guidelines described in the Approved Standards M7-A7 protocol, published by the Clinical Laboratory Standards Institute (CLSI).
(§3) Table II below provides MIC data for compounds of the invention and related species from U.S. Pat. No. 6,878,691 and US Published Application No. 2009/0118506, each of which is incorporated herein by reference. The values in the table are minimum inhibition concentration (MIC) and are expressed as ug/mL.

[2] = system: H. influenzae strain 49247; experiment: MIC by micro-dilution method, H. influenzae strain 49247; type: cell-based, Haemophilus influenzae; details: compounds of the invention (scaffold drawing 61, 9-hydroxy); 24 hours, 35+/-2° C.
Protocol: as §1, §2, §3

| SMILES | H. influenzae MIC strain 33929 [1] [µg/mL] | H. influenzae MIC strain 49247 [2] [µg/mL] |
| --- | --- | --- |
| CC[C@H]1OC(=O)[C@H](C)C(=O)[C@H](C)[C@@H](O[C@@H]2O[C@H](C)C[C@H](N(C)C)[C@H]2O)[C@@]2(C)C[C@@H](C)[C@H](O)[C@H](C)C(OCC(=NOCc3ccc(-c4nc(N)ns4)cn3)CO2)[C@]1(C)O [Compound 2] | 1 | 1 |
| CC[C@H]1OC(=O)[C@@](C)(F)C(=O)[C@H](C)[C@@H](O[C@@H]2O[C@H](C)C[C@H](N(C)C)[C@H]2O)[C@@]2(C)C[C@@H](C)[C@H](O)[C@H](C)C(OCC(=NOCc3ccc(-c4nc(N)cs4)cn3)CO2)[C@]1(C)O [Compound 10] | 4 | 1 |
| CC[C@H]1OC(=O)[C@H](C)C(=O)[C@H](C)[C@@H](O[C@@H]2O[C@H](C)C[C@H](N(C)C)[C@H]2O)[C@@]2(C)C[C@@H](C)[C@H](O)[C@H](C)C(OCC(=NOCc3ccc(-c4ccno4)nc3)CO2)[C@]1(C)O [Compound 4] | 1 | 1 |
| CC[C@H]1OC(=O)[C@H](C)C(=O)[C@H](C)[C@@H](O[C@@H]2O[C@H](C)C[C@H](N(C)C)[C@H]2O)[C@@]2(C)C[C@@H](C)[C@H](O)[C@H](C)C(OCC(=NOCc3cccc(-c4cccc(N)n4)n3)CO2)[C@]1(C)O [Compound 6] | 1 | 1 |
| CC[C@H]1OC(=O)[C@H](C)C(=O)[C@H](C)[C@@H](O[C@@H]2O[C@H](C)C[C@H](N(C)C)[C@H]2O)[C@@]2(C)C[C@@H](C)[C@H](O)[C@H](C)C(OCC(=NOCc3ncc(-c4cccc(N)n4)s3)CO2)[C@]1(C)O [Compound 8] | 2 | 1 |
| CCC1OC(=O)C(C)(F)C(=O)C(C)C(OC2OC(C)CC(N(C)C)C2O)C2(C)CC(C)C(O)C(C)C(OCC(=NOCc3ccc(-c4nccs4)cn3)CO2)C1(C)O (mixture of isomers) [Compound 16] | 2 |  |
| CC[C@H]1OC(=O)[C@H](C)C(=O)[C@H](C)[C@@H](O[C@@H]2O[C@H](C)C[C@H](N(C)C)[C@H]2O)[C@@]2(C)C[C@@H](C)[C@H](O)[C@H](C)C(OCC(=NOCc3ccc(-c4nc(N)cs4)cn3)CO2)[C@]1(C)O [Compound 3] | 4 | 2 |
| CC[C@H]1OC(=O)[C@H](C)C(=O)[C@H](C)[C@@H](O[C@@H]2O[C@H](C)C[C@H](N(C)C)[C@H]2O)[C@@]2(C)C[C@@H](C)[C@H](O)[C@H](C)C(OCC(=NOCc3csc(-c4cccc(N)n4)n3)CO2)[C@]1(C)O [Compound 9] | 1 | 1 |
| CC[C@H]1OC(=O)[C@H](C)C(=O)[C@H](C)[C@@H](O[C@@H]2O[C@H](C)C[C@H](N(C)C)[C@H]2O)[C@@]2(C)C[C@@H](C)[C@H](O)[C@H](C)C(OCC(=NOCc3ccc(-n4ccc(N)n4)cn3)CO2)[C@]1(C)O [Compound 5] | 2 | 2 |
| CC[C@H]1OC(=O)[C@H](C)C(=O)[C@H](C)[C@@H](O[C@@H]2O[C@H](C)C[C@H](N(C)C)[C@H]2O)[C@@]2(C)C[C@@H](C)[C@H](O)[C@H](C)C(OCC(=NOCc3ccc(-n4ccc(N)n4)nc3)CO2)[C@]1(C)O [Compound 7] | 1 | 1 |

Further lines, results first:

| H. influenzae MIC strain 33929 [1] [µg/mL] | H. influenzae MIC strain 49247 [2] [µg/mL] | SMILES |
| --- | --- | --- |
| 1 | 1 | CCC1OC(=O)C(C)(F)C(=O)C(C)C(OC2OC(C)CC(N(C)C)C2O)C2(C)CC(C)C(O)C(C)C(OCC(=NOCc3csc(-c4cccc(N)n4)n3)CO2)C1(C)O (mixture of isomers) [Compound 17] |
| 1 | 1 | CC[C@H]1OC(=O)[C@@](C)(F)C(=O)[C@H](C)[C@@H](O[C@@H]2O[C@H](C)C[C@H](N(C)C)[C@H]2O)[C@@]2(C)C[C@@H](C)[C@H](O)[C@H](C)C(OCC(=NOCc3ncc(-c4cccc(N)n4)s3)CO2)[C@]1(C)O [Compound 11] |
| 2 | 1 | CCC1OC(=O)C(C)(F)C(=O)C(C)C(OC2OC(C)CC(N(C)C)C2O)C2(C)CC(C)C(O)C(C)C(OCC(=NOCc3ccc(-c4ccno4)nc3)CO2)C1(C)O (mixture of isomers) [Compound 13] |
| 4 | 4 | CCC1OC(=O)C(C)(F)C(=O)C(C)C(OC2OC(C)CC(N(C)C)C2O)C2(C)CC(C)C(O)C(C)C(OCC(=NOCc3ccc(-c4nc(N)cs4)cc3)CO2)C1(C)O (mixture of isomers) [Compound 15] |
| 2 | 1 | CCC1OC(=O)C(C)(F)C(=O)C(C)C(OC2OC(C)CC(N(C)C)C2O)C2(C)CC(C)C(O)C(C)C(OCC(=NOCc3coc(-c4cccc(N)n4)n3)CO2)C1(C)O (mixture of isomers) [Compound 14] |
| 2 | 1 | CCC1OC(=O)C(C)(F)C(=O)C(C)C(OC2OC(C)CC(N(C)C)C2O)C2(C)CC(C)C(O)C(C)C(OCC(=NOCc3ccc(-c4nc(N)cs4)nc3)CO2)C1(C)O (mixture of isomers) [Compound 18] |
| 2 | 1 | CC[C@H]1OC(=O)[C@@](C)(F)C(=O)[C@H](C)[C@@H](O[C@@H]2O[C@H](C)C[C@H](N(C)C)[C@H]2O)[C@@]2(C)C[C@@H](C)[C@H](O)[C@H](C)C(OCC(=NOCc3cnc(-c4cccc(N)n4)s3)CO2)[C@]1(C)O [Compound 12] |
